Test results taken from patent publication US9969766B2, “20(R)-ginsenoside Rg3 polyacylated derivatives, preparation and application thereof” (priority 2014, dated 2018).

Experiments:
Conditions in all cases: po × 14bid
mouse Lewis lung cancer [1] = assay: Mouse Lewis lung cancer (subcutaneous inoculation) metastasis model
Text: (§1) human breast cancer Bcap-37 model, human lung cancer A549 model, human intestinal cancer LOVO model, human stomach cancer MGC model and human liver cancer QGY model, with tumor cell lines being of the second generation or more, mouse B16 melanoma cell line, mouse Lewis lung cancer model, mouse sarcoma s180 model, all passaged and preserved in Pharmacological Division of Shanghai Institute of Pharmaceutical Industry. 3. Experiment Animals Origins: nude mice, 6-week old, 18-22 g/mouse, provided by Laboratory Animal Center of Chinese Academy of Sciences, Shanghai Branch, with certification No. 2001A032. C57BL/6 mice and Kunming mice, 18-22 g/mouse, provided by Laboratory Animal Center of Chinese Academy of Sciences, Shanghai Branch, with certification SYXK (Shanghai) 2004-0015. Gender: male or female, the same gender for each batch in experiment Animal numbers: 10 mice and 10 nude mice for each of positive control group and test group in experiment, and 20 for negative control group. 4. Experiment Design Dose Settings: doses for 20(R)-ginsenoside Rg3 octo-acetate, 20(R)-ginsenoside Rg3 octo-n-butyrate and 20(R)-ginsenoside Rg3 octo-n-propionate were set as high-dose group (0.3 mg/kg/d), medium-dose group (0.06 mg/kg/d), and low-dose group (0.012 mg/kg/d). Dosage regimen: oral administration, twice daily. human tumor model and cell-inoculated mouse model: po×14 bid; mouse tumor-inoculated model: po×10 bid. Control Trial: negative control group: given with the same volume of 5% CMC-Na as the test group, and the same dosage regimen as the test group. positive control group: Cyclophosphamide CTX 30 mg/kg, MMC 2 mg/kg and 5Fu 30 mg/kg by intraperitoneal or intravenous administration, once daily, for seven consecutive days. 5. Experiment Method and Key Steps 5.1 Anti-Tumor Test 5.1.1 Subcutaneous Inoculation Model
(§2) Tumor cells of vigorous growth stage were taken under sterile condition and made into cell suspensions of about 1-2×10^7/ml by homogenization, the suspensions were inoculated subcutaneously at 0.2 ml/mouse in host mice and repeated on the next day according to the experiment design, the animals in each group were slaughtered after about three weeks, the tumors were collected and weighed, and the tumor inhibition rates were calculated according to the following equation: tumor inhibition rate %=[(average tumor weight of control group-average tumor weight of treatment group)/average tumor weight of control group]×100%

[2] = system: human breast cancer Bcap-37 cells; assay: Human breast cancer Bcap-37 subcutaneous inoculation in nude mice
Text: as §1, with “Cyclophosphamide CTX 30 mg/kg, MMC 2 mg/kg and 5Fu 30 mg/kg by intraperitoneal or intravenous administration, once daily, for seven consecutive days.” left out
as §2
The same operation was repeated in human tumor xenograft model, except that the feed, packing, cage and contact instruments were all sterilized under high pressure before use and the nude mice were fed in a laminar flow rack. The tumors and tumor-bearing animal weight gains were dynamically measured (tumor size measured using caliper: long diameter/a, short diameter/b, and tumor bulk=a×b^2/2).

mouse Lewis lung cancer [3] = assay: Mouse Lewis lung cancer, toe subcutaneous inoculation, anti-tumor test
Text: as §1, with “MMC 2 mg/kg and 5Fu 30 mg/kg by intraperitoneal or intravenous administration, once daily, for seven consecutive days.” left out
as §2

mouse melanoma B16 cells = assay: Mouse melanoma B16 tail vein inoculation, lung metastasis
Text: as §1

## CC(=O)OC[C@H]1O[C@@H](OC2CC[C@]3(C)C(CC[C@@]4(C)C3C[C@H](OC(C)=O)C3C([C@@](C)(O)CCC=C(C)C)CC[C@@]34C)C2(C)C)[C@H](OC2O[C@H](COC(C)=O)[C@@H](OC(C)=O)[C@H](OC(C)=O)[C@H]2OC(C)=O)[C@@H](OC(C)=O)[C@@H]1OC(C)=O (stereo partly drawn) [Rg3-octo-acetate, 20 (R)-ginsenoside Rg3 octaacetate]
Mouse Lewis lung cancer [1]; 0.012 mg/kg/d
  Anti-metastasis rate %: 50.30%
  Lung clone numbers (mice) X ± SD: 1.38 ± 0.13
Mouse Lewis lung cancer [1]; 0.06 mg/kg/d
  Anti-metastasis rate %: 58.90%
  Lung clone numbers (mice) X ± SD: 1.14 ± 0.12
Mouse Lewis lung cancer [1]; 0.3 mg/kg/d
  Anti-metastasis rate %: 69.96%
  Lung clone numbers (mice) X ± SD: 0.84 ± 0.15
[2]; 0.012 mg/kg/d
  Tumor inhibition rate %: 47.93%
  Tumor weight (g) X ± SD: 0.672 ± 0.07 g
[2]; 0.06 mg/kg/d
  Tumor inhibition rate %: 59.69%
  Tumor weight (g) X ± SD: 0.520 ± 0.08 g
[2]; 0.3 mg/kg/d
  Tumor inhibition rate %: 68.98%
  Tumor weight (g) X ± SD: 0.400 ± 0.09 g
Mouse Lewis lung cancer [3]; 0.012 mg/kg/d
  Tumor inhibition rate %: 50.15%
  Tumor-bearing toe weight (g) X ± SD: 0.444 ± 0.09 g
Mouse Lewis lung cancer [3]; 0.06 mg/kg/d
  Tumor inhibition rate %: 58.89%
  Tumor-bearing toe weight (g) X ± SD: 0.366 ± 0.09 g
Mouse Lewis lung cancer [3]; 0.3 mg/kg/d
  Tumor inhibition rate %: 71.09%
  Tumor-bearing toe weight (g) X ± SD: 0.633 ± 0.08 g
Mouse melanoma B16 cells; 0.012 mg/kg/d
  Anti-metastasis rate %: 50.90%
  Lung clone numbers (mice) X ± SD: 23.62 ± 7.0
Mouse melanoma B16 cells; 0.06 mg/kg/d
  Anti-metastasis rate %: 63.87%
  Lung clone numbers (mice) X ± SD: 17.38 ± 7.1
Mouse melanoma B16 cells; 0.3 mg/kg/d
  Anti-metastasis rate %: 79.98%
  Lung clone numbers (mice) X ± SD: 9.63 ± 7.9
